Data set [1] concerns the target T1, Sigma-1 receptor (Cavia porcellus, UniProt Q60492).
T1 construct: from tissue; host or cells: guinea pig brain membranes
The data set can be described thus: Sigma-1 receptor radioligand binding assay, [3H](+)-pentazocine, guinea pig brain membranes. As to conditions: [3H](+)-pentazocine 0.5 nM; for % Binding σ1 10^−7M: compound at 10^−7M; for % Binding σ1 10^−8M: compound at 10^−8M. The procedure: Brain membrane preparation and binding assays for the al-receptor were performed as described (DeHaven-Hudkins et al., 1992) with some modifications. In brief, guinea pig brains were homogenized in 10 vols. (w/v) of Tris-HCl 50 mM 0.32 M sucrose, pH 7.4, with a Kinematica Polytron PT 3000 at 15000 r.p.m. for 30 s. The homogenate was centrifuged at 1000 g for 10 min at 4° C. and the supernatants collected and centrifuged again at 48000 g for 15 min at 4° C. The pellet was resuspended in 10 volumes of Tris-HCl buffer (50 mM, pH 7.4), incubated at 37° C. for 30 min, and centrifuged at 48000 g for 20 min at 4° C. Following this, the pellet was resuspended in fresh Tris-HCl buffer (50 mM, pH 7.4) and stored on ice until use.
Each assay tube contained 10 μL of [^3H](+)-pentazocine (final concentration of 0.5 nM), 900 μL of the tissue suspension to a final assay volume of 1 mL and a final tissue concentration of approximately 30 mg tissue net weight/mL. Non-specific binding was defined by addition of a final concentration of 1 μM haloperidol. All tubes were incubated at 37° C. for 150 min before termination of the reaction by rapid filtration over Schleicher & Schuell GF 3362 glass fibre filters [previously soaked in a solution of 0.5% polyethylenimine for at least 1 h]. Filters were then washed with four times with 4 mL of cold Tris-HCl buffer (50 mM, pH 7.4). Following addition of scintillation cocktail, the samples were allowed to equilibrate overnight. The amount of bound radioactivity was determined by liquid scintillation spectrometry using a Wallac Winspectral 1414 liquid scintillation counter. Protein concentrations were determined by the method of Lowry et al. (1951).

From US8227625B2, “4,5,6,7-tetrahydrobenzo[b]thiophene derivatives and their use as sigma receptor ligands” (Laboratorios del Dr. Esteve, S.A., priority 2006, dated 2012) come the findings set out here.

T1 sequence (Q60492 whole entry): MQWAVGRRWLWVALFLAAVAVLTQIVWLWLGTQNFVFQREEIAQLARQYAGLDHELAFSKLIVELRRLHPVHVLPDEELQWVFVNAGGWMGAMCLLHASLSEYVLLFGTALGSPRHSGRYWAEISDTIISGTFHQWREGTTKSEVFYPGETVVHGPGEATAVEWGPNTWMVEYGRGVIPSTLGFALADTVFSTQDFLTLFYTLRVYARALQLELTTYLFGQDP

As to `CN(C/C=C1\CCCc2sccc21)Cc1ccccc1` [Example 3, (E)-N-benzyl-2-(6,7-dihydrobenzo[b]thien-4(5H)-ylidene)-N-methylethanamine], in data set [1], the “% Binding σ1 10^−7M” value was found to be 70.6% and the “% Binding σ1 10^−8M” value is 27.3%.
On the same counts, the results for `C(/CN1CCC(c2ccccc2)CC1)=C1/CCCc2sccc21` [Example 5, (E)-1-(2-(6,7-dihydrobenzo[b]thien-4(5H)-ylidene)ethyl)-4-phenylpiperidine] are 84.5% and 32.8%.
Taken in the same sequence, the figures for `CN(C/C=C1\CCCc2sccc21)CCc1ccccc1` [Example 7, (E)-N-(2-(6,7-dihydrobenzo[b]thien-4(5H)-ylidene)ethyl)-N-methyl-2-phenylethanamine] were 89.3% and 48.6%.
Taken in the same sequence, the figures for `C(/CN1CCCCC1)=C1/CCCc2sccc21` [Example 9, (E)-1-(2-(6,7-dihydrobenzo[b]thien-4(5H)-ylidene)ethyl)piperidine] were 23% and 5%.
Take `CC1CCN(C/C=C2\CCCc3sccc32)CC1` [Example 11, (E)-1-(2-(6,7-dihydrobenzo[b]thien-4(5H)-ylidene)ethyl)-4-methylpiperidine]: in data set [1], the “% Binding σ1 10^−7M” value was determined as 70.9% and the “% Binding σ1 10^−8M” value is on record as 18.2%.
The compound `COc1ccc(C2CCN(CCC3CCCc4sccc43)CC2)cc1.O=C(O)C(=O)O` (stereo not shown) [Example 63, 4-(4-methoxyphenyl)-1-(2-(4,5,6,7-tetrahydrobenzo[b]thiophen-4-yl)ethyl)piperidine oxalate] displayed a melting point of 175 to 176 °C.
With `CN1CCC2(CCN(CCC3CCCc4sccc43)CC2)C1=O.O=C(O)C(=O)O` (stereo not shown) [Example 65, 2-Methyl-8-[2-(4,5,6,7-tetrahydrobenzo[b]thiophen-4-yl)-ethyl]-2,8-diazaspiro[4.5]decan-1-one oxalate], the melting point is 140 to 142 °C.
Still for that read-out and setting: the same measure for `O=C(O)C(=O)O.O=C1N(c2ccc(Cl)cc2)CCC12CCN(CCC1CCCc3sccc31)CC2` (stereo not shown) [Example 69, 2-(4-Chlorophenyl)-8-[2-(4,5,6,7-tetrahydrobenzo[b]thiophen-4-yl)-ethyl]-2,8-diazaspiro[4.5]decan-1-one oxalate]: 218 to 220 °C; for `O=C(O)C(=O)O.O=C1NCCC12CCN(CCC1CCCc3sccc31)CC2` (stereo not shown) [Example 71, 8-[2-(4,5,6,7-Tetrahydrobenzo[b]thiophen-4-yl)-ethyl]-2,8-diazaspiro[4.5]decan-1-one oxalate]: 147 to 149 °C.
Compound `COc1ccc2c(c1)CN(CCC1CCCc3sccc31)CC2.O=C(O)C(=O)O` (stereo not shown) [Example 75, 7-methoxy-2-(2-(4,5,6,7-tetrahydrobenzo[b]thiophen-4-yl)ethyl)-1,2,3,4-tetrahydroisoquinoline oxalate] returned a melting point of 200 to 201 °C.
`Clc1cc(Cl)c2c(c1)CN(CCC1CCCc3sccc31)CC2.O=C(O)C(=O)O` (stereo not shown) [Example 77, 5,7-dichloro-2-(2-(4,5,6,7-tetrahydrobenzo[b]thiophen-4-yl)ethyl)-1,2,3,4-tetrahydroisoquinoline oxalate] came in with a melting point of 182 to 184 °C.
The same measure, in the same setting: the same measure for `O=C(O)C(=O)O.c1ccc2c(c1)ccn2C1CCN(CCC2CCCc3sccc32)CC1` (stereo not shown) [Example 79, 1-(1-(2-(4,5,6,7-tetrahydrobenzo[b]thiophen-4-yl)ethyl)piperidin-4-yl)-1H-indole oxalate]: 162 to 164 °C; for `CC(C)(C)N1CCC2(CCN(CCC3CCCc4sccc43)CC2)C1=O.O=C(O)C(=O)O` (stereo not shown) [Example 81, 2-tert-butyl-8-[2-(4,5,6,7-tetrahydrobenzo[b]thiophen-4-yl)-ethyl]-2,8-diazaspiro[4.5]decan-1-one oxalate]: 172 to 173 °C.
Still for that read-out and setting: then `O=C(O)C(=O)O.O=C1N(Cc2ccccc2)CCC12CCN(CCC1CCCc3sccc31)CC2` (stereo not shown) [Example 83, 2-benzyl-8-[2-(4,5,6,7-tetrahydrobenzo[b]thiophen-4-yl)-ethyl]-2,8-diazaspiro[4.5]decan-1-one oxalate], with 170 to 171 °C; and `COc1ccc(N2CCC3(CCN(CCC4CCCc5sccc54)CC3)C2=O)cc1.O=C(O)C(=O)O` (stereo not shown) [Example 85, 2-(4-Methoxyphenyl)-8-[2-(4,5,6,7-tetrahydrobenzo[b]thiophen-4-yl)-ethyl]-2,8diazaspiro[4.5]decan-1-one oxalate], with 205 to 206 °C.
On the same count and under the same terms, the same measure for `O=C(O)C(=O)O.O=C1N(c2ccccc2)CCC12CCN(CCC1CCCc3sccc31)CC2` (stereo not shown) [Example 87, 2-phenyl-8-[2-(4,5,6,7-tetrahydrobenzo[b]thiophen-4-yl)-ethyl]-2,8-diazaspiro[4.5]decan-1-one oxalate]: 200 to 201 °C.
Compound `O=C(O)C(=O)O.O=C1N(c2ccc(C(F)(F)F)cc2)CCC12CCN(CCC1CCCc3sccc31)CC2` (stereo not shown) [Example 89, 2-(4-trifluoromethylphenyl)-8-[2-(4,5,6,7-tetrahydrobenzo[b]thiophen-4-yl)-ethyl]-2,8-diazaspiro[4.5]decan-1-one oxalate] yielded a melting point of 166 to 168 °C.
As to `Brc1cccc2c1CCN(CCC1CCCc3sccc31)C2.O=C(O)C(=O)O` (stereo not shown) [Example 91, 5-bromo-2-(2-(4,5,6,7-tetrahydrobenzo[b]thiophen-4-yl)ethyl)-1,2,3,4-tetrahydroisoquinoline oxalate], the melting point fell in the range of 167 to 168 °C.
For `N#Cc1ccc2c(c1)CN(CCC1CCCc3sccc31)CC2.O=C(O)C(=O)O` (stereo not shown) [Example 93, 2-(2-(4,5,6,7-tetrahydrobenzo[b]thiophen-4-yl)ethyl)-1,2,3,4-tetrahydroisoquinoline-7-carbonitrile oxalate], the melting point fell in the range of 180 to 181 °C.
Still for that read-out and setting: then `O=C(O)C(=O)O.O=C1N(c2ccc(F)cc2)CCC12CCN(CCC1CCCc3sccc31)CC2` (stereo not shown) [Example 95, 2-(4-Fluorophenyl)-8-[2-(4,5,6,7-tetrahydrobenzo[b]thiophen-4-yl)-ethyl]-2,8-diazaspiro[4.5]decan-1-one oxalate], with 195 to 199 °C.

The melting point is the temperature, or range, at which the solid turns liquid.
